Like-named read-outs stand apart in the source and are kept apart here.
Tests used:
[1] = system: DOHH-2 cell strain; test: Tumor cell proliferation inhibition assay (CellTiter-Glo), DOHH-2; type: cell-based; details: Homo sapiens, 120 h, DOHH-2 cells, 5-day treatment
Procedure: After the HCT116-MTAP-knockout (−/−) cell strain, the HCT116-MTAP wild-type(+/+)-cell strain, the DOHH-2 cell strain, or the Hut-78 cell strain was treated with the test compound for 5 days, the ATP level was measured using a CellTiter-Glo kit of Promega to evaluate the inhibition of the test compound against the growth of the tumor cell strain.
In the present application, the HCT116-MTAP-knockout (−/−) cell strain, the HCT116-MTAP wild-type (+/+)-cell strain, the DOHH-2 cell strain, or the Hut-78 cell strain was seeded into a 96-well cell culture plate at an appropriate cell density. After 24 h, the cells were treated using the test compounds diluted 1:3 fold at the highest concentration of 10 μM for 10 gradients, and a DMSO treatment group was set up separately. The cells were cultured in a 37° C./5% CO2 incubator for 5 days.

[2] = system: Hut-78 cell strain; test: Tumor cell proliferation inhibition assay (CellTiter-Glo), Hut-78; type: cell-based; details: Hut-78 cells, 5-day treatment
How it was run: (§1)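 Cells seeded, then after 24 h treated with 10-point 1:3 dilutions from 10 μM top concentration, DMSO control. Cultured 5 days at 37 °C/5% CO2; growth inhibition from ATP level by CellTiter-Glo luminescence.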

[3] = system: SDMA in human colon cancer cell line HCT116; test: Cell symmetric dimethylarginine (SDMA) test, In-cell Western, HCT116 (MTAP wild-type); type: cell-based
How it was run: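 SDMA level, an indirect readout of cellular MAT2A inhibition, measured by In-cell Western as background-subtracted 800/700 nm signal against DRAQ5. Cells exposed 4 days to six 1:4-diluted doses from 6 μM; inhibition relative to DMSO, IC50 from sigmoidal fit.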

[4] = system: SDMA in HCT116-MTAP-knockout cell line; test: Cell symmetric dimethylarginine (SDMA) test, In-cell Western, HCT116-MTAP-knockout; type: cell-based; details: Homo sapiens, 96 h
[5] = target: MAT2A recombinant protein (Homo sapiens, UniProt P31153); test: MAT2A inhibitory activity (malachite green colorimetric enzyme assay); type: biochemical
MAT2A recombinant protein, sequence (P31153 whole entry): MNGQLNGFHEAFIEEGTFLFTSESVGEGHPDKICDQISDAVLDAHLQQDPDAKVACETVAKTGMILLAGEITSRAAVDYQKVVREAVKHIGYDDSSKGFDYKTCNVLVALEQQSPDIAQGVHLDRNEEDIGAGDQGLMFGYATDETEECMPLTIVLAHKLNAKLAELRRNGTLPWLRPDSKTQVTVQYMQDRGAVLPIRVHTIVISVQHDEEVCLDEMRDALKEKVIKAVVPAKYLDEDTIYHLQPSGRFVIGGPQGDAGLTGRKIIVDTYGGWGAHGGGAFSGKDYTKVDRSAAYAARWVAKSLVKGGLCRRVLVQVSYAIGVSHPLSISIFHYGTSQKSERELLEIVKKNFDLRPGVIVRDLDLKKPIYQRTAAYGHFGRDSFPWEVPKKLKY
How it was run: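 Compounds tested over 10 points, 3-fold dilutions, top final concentration 1000 nM. Enzyme reaction: MAT2A, L-methionine, ATP, room temperature, 60 min, in HEPES pH 7.5 buffer with KCl, MgCl2 and DTT; inorganic phosphate read colorimetrically (malachite green, A630). Inhibition vs log concentration fitted for IC50.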

[6] = Pharmacokinetic test in mice (IV and PO); type: in vivo; details: mouse, plasma, BALB/c mice; for half-life: read-out: T½ (converted); for Vd: read-out: Vz
[7] = system: HCT116-MTAP wild-type (+/+)-cell strain; test: Tumor cell proliferation inhibition assay (CellTiter-Glo), HCT116-MTAP wild-type (+/+); type: cell-based; details: Homo sapiens, 120 h, HCT116-MTAP wild-type (+/+) cells, 5-day treatment
How it was run: as §1

[8] = system: HCT116-MTAP-knockout (−/−) cell strain; test: Tumor cell proliferation inhibition assay (CellTiter-Glo), HCT116-MTAP-knockout (-/-); type: cell-based; details: Homo sapiens, 120 h, HCT116-MTAP-knockout (−/−) cells, 5-day treatment
How it was run: as §1

[9] = IC50 score, read-out: Tumor cell 5-day relative growth inhibition (DOHH-2) (nM), score
[10] = IC50 value, read-out: Tumor cell 5-day relative growth inhibition (DOHH-2)
[11] = Homo sapiens, HuT78, 120 h, IC50 score, read-out: Tumor cell 5-day relative growth inhibition (Hut-78) (nM), score
[12] = Homo sapiens, HuT78, 120 h, IC50 value, read-out: Tumor cell 5-day relative growth inhibition (Hut-78)
[13] = Homo sapiens, HCT-116, 96 h, IC50 score class, read-out: Cell 96 h SDMA Inhibition (HCT116-MTAP+/+) (score)
[14] = Homo sapiens, HCT-116, 96 h, read-out: Cell 96 h SDMA inhibition (HCT116-MTAP+/+)
[15] = IC50 score class, read-out: Cell 96 h SDMA Inhibition (HCT116-MTAP−/−) (score)
[16] = read-out: Cell 96 h SDMA Inhibition (HCT116-MTAP−/−)
[17] = IC50 score, read-out: Tumor cell 5-day relative growth inhibition (Hut-78) (nM), score
[18] = IC50 value, read-out: Tumor cell 5-day relative growth inhibition (Hut-78)
[19] = IC50 score class, read-out: MAT2A Inhibition (score)
[20] = IC50 score, read-out: Tumor cell 5-day relative growth inhibition (HCT116-MTAP+/+) (nM), score
[21] = IC50 value, read-out: Tumor cell 5-day relative growth inhibition (HCT116-MTAP+/+)
[22] = IC50 score, read-out: Tumor cell 5-day relative growth inhibition (HCT116-MTAP−/−) (nM), score
[23] = IC50 value, read-out: Tumor cell 5-day relative growth inhibition (HCT116-MTAP−/−)

| Compound | IC50 [1, 9] [nM] | IC50 [1, 10] [nM] | IC50 [2, 11] [nM] | IC50 [2, 12] [nM] | IC50 [3, 13] [nM] | IC50 [3, 14] [nM] | IC50 [4, 15] [nM] | IC50 [4, 16] [nM] | IC50 [5, 19] [nM] | IC50 ([5]; read-out: MAT2A Inhibition) [nM] | also measured |
| --- | --- | --- | --- | --- | --- | --- | --- | --- | --- | --- | --- |
| O=c1c2nn(CC(F)F)cc2c2ccc(Cl)cc2n1-c1cccnc1 [Compound B40] | ≥ 2000 | 2400 | 500 to 2000 | 1290 | > 3000 | 4470 | 200 to 1000 | 376 | – | – | – |
| Cc1ncccc1-n1c(=O)c2nn(C)cc2c2ccc(C(F)(F)F)nc21 [Compound B76] | < 500 | 82 | – | – | 200 to 1000 | 216 | < 200 | 10 | – | – | IC50 [2, 17]: < 500 nM; IC50 [2, 18]: 10.6 nM |
| O=c1c2nn(Cc3cccnc3)cc2c2ccc(Cl)cc2n1-c1cccnc1 [Compound B47] | 500 to 2000 | 1670 | < 500 | 200 | > 3000 | 47000 | < 200 | 154 | < 100 | 29.7 | – |
| CCn1cc2c(n1)c(=O)n(-c1cccnc1C)c1cc(Cl)ccc21 [Compound B30] | < 500 | 400 | < 500 | 33.1 | 200 to 1000 | 230 | < 200 | 7.6 | < 100 | 32.7 | – |
| CCn1nc2c(=O)n(-c3cccnc3)c3cc(Cl)ccc3c2c1C [Compound B17] | < 500 | 396 | – | – | 200 to 1000 | 635 | < 200 | 51.5 | < 100 | 24 | AUC ([6]; IV 2 mg/kg): 3.46 µM·h; clearance ([6]; IV 2 mg/kg): 27.7 mL/min/kg; bioavailability ([6]; IV 2 mg/kg, PO 10 mg/kg): 127%; half-life ([6]; IV 2 mg/kg): 14.4 min; Vd ([6]; IV 2 mg/kg): 0.6 L/kg; AUC ([6]; PO 10 mg/kg): 22.5 µM·h; half-life ([6]; PO 10 mg/kg): 28.2 min |
| O=c1c2[nH]ncc2c2ccc(Cl)cc2n1-c1cccnc1 [Compound B13] | 500 to 2000 | 979 | – | – | 1000 to 3000 | 2790 | < 200 | 188 | < 100 | 17.2 | IC50 [7, 20]: 500 to 2000 nM; IC50 [7, 21]: 928 nM; IC50 [8, 22]: < 500 nM; IC50 [8, 23]: 282 nM |
| CCn1cc2c(n1)c(=O)n(-c1cccnc1)c1nc(C(F)(F)F)ccc21 [Compound B29] | 500 to 2000 | 719 | – | – | 200 to 1000 | 599 | < 200 | 90.4 | < 100 | 18.5 | IC50 [7, 20]: < 500 nM; IC50 [7, 21]: 437 nM; AUC ([6]; IV 2 mg/kg): 1.86 µM·h; clearance ([6]; IV 2 mg/kg): 46.7 mL/min/kg; bioavailability ([6]; IV 2 mg/kg, PO 10 mg/kg): 95%; half-life ([6]; IV 2 mg/kg): 18 min; Vd ([6]; IV 2 mg/kg): 1.3 L/kg; AUC ([6]; PO 10 mg/kg): 9.32 µM·h; half-life ([6]; PO 10 mg/kg): 25.8 min; IC50 [8, 22]: < 500 nM; IC50 [8, 23]: 154 nM |
| CC(C)n1cc2c(n1)c(=O)n(-c1cccnc1)c1cc(Cl)ccc21 [Compound B39] | ≥ 2000 | 3790 | < 500 | 98.6 | 1000 to 3000 | 1530 | 200 to 1000 | 586 | – | – | – |
| Cc1ncccc1-n1c(=O)c2nn(C)cc2c2ccc(Cl)cc21 [Compound B65] | < 500 | 62.9 | – | – | – | – | – | – | < 100 | 34.1 | IC50 [2, 17]: < 500 nM; IC50 [2, 18]: 23.8 nM; IC50 ([3]; 96 h, IC50 score class, read-out: Cell 96 h SDMA Inhibition (HCT116-MTAP+/+) (score)): < 200 nM; IC50 ([3]; 96 h, read-out: Cell 96 h SDMA inhibition (HCT116-MTAP+/+)): 191 nM |
| Cn1cc2c(n1)c(=O)n(-c1ccc3cn[nH]c3c1)c1cc(Cl)ccc21 [Compound B57] | ≥ 2000 | 2040 | ≥ 2000 | 2130 | > 3000 | > 3000 | 200 to 1000 | 579 | < 100 | 54.3 | – |
| Cn1cc2c(n1)c(=O)n(-c1cccnc1)c1cc(C(F)(F)F)ccc21 [Compound B69] | 500 to 2000 | 1150 | – | – | 1000 to 3000 | 1470 | < 200 | 109 | < 100 | 28 | – |
| COCCn1cc2c(n1)c(=O)n(-c1cccnc1)c1cc(Cl)ccc21 [Compound B45] | ≥ 2000 | 2020 | – | – | > 3000 | 3220 | < 200 | 132 | < 100 | 27.4 | – |
| CCn1cc2c(n1)c(=O)n(-c1c(C)ccnc1C)c1cc(Cl)ccc21 [Compound B31] | ≥ 2000 | 8080 | – | – | 200 to 1000 | 971 | < 200 | 169 | < 100 | 65.3 | – |

Reference: patent US20240391923A1, “METHIONINE ADENOSYLTRANSFERASE 2A INHIBITOR FOR TREATING MTAP DELETION-TYPE CANCER” (SUZHOU GENHOUSE BIO CO., LTD., priority 2022, published 2024)
